According to patent US20100316575A1, “MODULATING BODY WEIGHT” (priority 2008, published 2010):

Molecular target: T1, KATP channels (Mus musculus, UniProt P70170+Q61743)
T1 construct: Pacing perfused hearts isolated from WT and Kir6.2-KO mice; from tissue; host or cells: isolated, retrogradely perfused and paced hearts of wild-type mice
Experiment: Rate-dependent action potential duration (APD90) in paced, perfused isolated hearts
Parameters: species or system mice
Details: isolated perfused paced WT mouse hearts, KATP-channel blockade with glyburide, FIG. 5B
From the text: FIG. 5. […] The KATP channel-dependent component in rate-dependent action potential shortening was verified in WT hearts following KATP-channel blockade with the sulfonylurea blocker glyburide (FIG. 5B). […] Maximal oxygen consumption (V O2max), corresponding to the highest tolerated workload, reflects the maximal rate of energy production and the ability of the cardiovascular system to supply oxygen. Kir6.2-KO and WT mice achieved the same level of V O2max reflecting their equivalent oxidative phosphorylation potential. […] This was associated with high lactate levels in the blood (FIG. 5E), indicating compromise of the cardiovascular system. Activity-related energy expenditure largely reflects the performance of cardiac and skeletal muscle, tissues with abundant KATP channel expression. Accordingly, cardiac muscle was used as a model of striated musculature. As cardiac function and associated energy consumption depends on electrical determinants, the contribution of KATP channels in heart rate-dependent modulation of action potential duration and rate of oxygen consumption were tested. Telemetry recording of cardiac activity defined that both WT and Kir6.2-KO mice display a heart rate profile with a 400 to 800 beats per minute range (FIG. 5A). […]

T1 sequence (Q61743 whole entry, the tested form may be a part): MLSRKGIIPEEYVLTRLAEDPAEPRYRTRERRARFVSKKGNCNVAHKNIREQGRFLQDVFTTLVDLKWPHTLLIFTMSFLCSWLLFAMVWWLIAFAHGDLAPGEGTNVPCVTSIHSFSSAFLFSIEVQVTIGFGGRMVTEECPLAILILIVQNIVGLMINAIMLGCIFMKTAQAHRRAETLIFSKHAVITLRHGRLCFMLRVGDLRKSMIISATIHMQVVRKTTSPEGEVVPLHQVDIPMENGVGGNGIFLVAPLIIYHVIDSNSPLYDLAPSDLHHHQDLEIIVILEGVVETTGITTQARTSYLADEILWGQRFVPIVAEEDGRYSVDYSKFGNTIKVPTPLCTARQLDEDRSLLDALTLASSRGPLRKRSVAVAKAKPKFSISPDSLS
T1 sequence (P70170 whole entry, the tested form may be a part): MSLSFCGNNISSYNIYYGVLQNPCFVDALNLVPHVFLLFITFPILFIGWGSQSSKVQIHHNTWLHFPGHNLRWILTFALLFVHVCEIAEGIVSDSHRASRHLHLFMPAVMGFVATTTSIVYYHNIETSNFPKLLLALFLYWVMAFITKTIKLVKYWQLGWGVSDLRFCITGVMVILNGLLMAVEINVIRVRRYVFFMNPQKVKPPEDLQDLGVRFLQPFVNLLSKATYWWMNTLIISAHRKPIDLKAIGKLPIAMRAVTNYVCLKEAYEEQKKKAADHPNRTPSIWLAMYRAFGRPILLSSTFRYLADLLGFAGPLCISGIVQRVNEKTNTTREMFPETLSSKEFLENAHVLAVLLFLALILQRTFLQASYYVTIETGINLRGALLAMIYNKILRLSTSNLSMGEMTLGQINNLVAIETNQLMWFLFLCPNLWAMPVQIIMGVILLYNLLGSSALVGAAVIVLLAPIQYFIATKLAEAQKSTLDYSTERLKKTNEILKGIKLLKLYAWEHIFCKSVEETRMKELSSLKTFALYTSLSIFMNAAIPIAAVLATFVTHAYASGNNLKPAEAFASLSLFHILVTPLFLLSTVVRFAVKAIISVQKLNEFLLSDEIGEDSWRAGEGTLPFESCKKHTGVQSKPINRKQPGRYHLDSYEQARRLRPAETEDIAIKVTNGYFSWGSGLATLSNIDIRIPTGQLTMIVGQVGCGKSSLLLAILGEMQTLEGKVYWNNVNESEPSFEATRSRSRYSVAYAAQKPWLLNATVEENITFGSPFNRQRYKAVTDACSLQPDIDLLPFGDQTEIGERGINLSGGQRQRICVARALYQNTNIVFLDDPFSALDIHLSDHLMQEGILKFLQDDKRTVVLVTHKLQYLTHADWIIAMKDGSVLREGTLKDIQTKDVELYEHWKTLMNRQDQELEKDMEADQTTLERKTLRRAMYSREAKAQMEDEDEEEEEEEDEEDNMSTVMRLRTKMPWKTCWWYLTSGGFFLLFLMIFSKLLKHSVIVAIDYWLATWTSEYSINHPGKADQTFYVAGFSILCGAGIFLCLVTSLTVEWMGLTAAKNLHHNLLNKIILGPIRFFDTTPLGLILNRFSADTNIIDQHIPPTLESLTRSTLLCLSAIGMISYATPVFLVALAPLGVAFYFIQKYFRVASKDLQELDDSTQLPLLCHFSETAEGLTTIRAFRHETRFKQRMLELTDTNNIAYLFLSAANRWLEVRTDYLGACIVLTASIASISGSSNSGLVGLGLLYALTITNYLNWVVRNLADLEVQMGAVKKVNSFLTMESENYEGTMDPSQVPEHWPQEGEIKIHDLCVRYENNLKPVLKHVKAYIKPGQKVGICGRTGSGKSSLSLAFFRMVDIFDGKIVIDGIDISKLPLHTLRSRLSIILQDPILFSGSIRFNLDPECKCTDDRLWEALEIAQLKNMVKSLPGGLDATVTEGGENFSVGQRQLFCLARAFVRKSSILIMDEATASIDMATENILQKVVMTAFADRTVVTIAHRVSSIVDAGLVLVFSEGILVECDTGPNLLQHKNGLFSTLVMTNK

**Q.** With `COc1ccc(Cl)cc1C(=O)NCCc1ccc(S(=O)(=O)NC(=O)NC2CCCCC2)cc1` [glyburide] as the compound, how does the “KATP channel-dependent component in rate-dependent action potential shortening (monophasic APD90)” value read?
**A.** verified
